Target: Adenosine receptor A2a (Homo sapiens) (UniProt P29274)
Test: Negative allosteric modulation of A2AR (unknown origin) expressed in CHO cells in presence of adenosine by CamBio assay

Sequence of Adenosine receptor A2a (Homo sapiens) (P29274 whole entry, looked up): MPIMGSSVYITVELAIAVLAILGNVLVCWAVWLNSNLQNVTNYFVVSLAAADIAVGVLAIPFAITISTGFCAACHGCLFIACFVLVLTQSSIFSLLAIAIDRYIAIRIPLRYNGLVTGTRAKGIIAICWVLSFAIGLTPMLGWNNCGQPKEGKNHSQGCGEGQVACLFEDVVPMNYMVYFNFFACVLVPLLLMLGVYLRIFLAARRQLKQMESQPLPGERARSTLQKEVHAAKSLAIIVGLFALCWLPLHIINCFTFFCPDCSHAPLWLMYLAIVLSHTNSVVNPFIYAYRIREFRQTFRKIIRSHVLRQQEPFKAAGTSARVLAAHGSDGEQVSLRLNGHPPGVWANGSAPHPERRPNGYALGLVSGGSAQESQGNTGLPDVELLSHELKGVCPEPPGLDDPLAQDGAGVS

IC50: 9 nM
SMILES: N#Cc1c(N)nc(N2CCCCC2)c(C#N)c1-c1cccnc1

Source: BindingDB's records for PubMed 39882870 (University of Modena and Reggio Emilia)
